The values that follow come from PubChem BioAssay (NCI).

Among the test systems are DMS 114 small cell lung; DMS 273 small cell lung; XF 498 CNS; T-47D breast; BT-549 breast; NCI/ADR-RES ovarian; HS 578T breast; MDA-N; HOP-18 NSCLC.
Common to all, as to assay: inhibition of tumour cell growth, NCI panel, 48 h

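Five concentrations, 48 hours, 96-well plates. GI50 is the concentration that inhibits growth by half. TGI: concentration producing complete growth inhibition.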 Some results are limits rather than exact numbers.

Regarding `CCOC(=O)C(C(=O)c1ccccc1-c1ccccc1C(=O)O)=P(c1ccccc1)(c1ccccc1)c1ccccc1`, the figures for the TGI in the experiment on DMS 114 small cell lung, in the experiment on DMS 273 small cell lung and with XF 498 CNS were 54.4 µM, over 100 µM and 50.2 µM, respectively.
Regarding `CCOP1(=O)OCC2OC(n3cnc4c(N)ncnc43)C(O)C2O1` (stereo unspecified), the TGI with T-47D breast, in the experiment with BT-549 breast, in the experiment on NCI/ADR-RES ovarian, with HS 578T breast and in the experiment with MDA-N was over 100 µM in each case.
As for `CN(C)CCCn1cnc2ncccc2c1=O`, the TGI with DMS 114 small cell lung, with DMS 273 small cell lung and with XF 498 CNS was over 100 µM each time.
On to `Nc1nc2nc3c(nc2c(=O)[nH]1)CN(c1ccc(C(=O)O)cc1)C3=O`, for which the TGI in the experiment with T-47D breast, with BT-549 breast, in the experiment with NCI/ADR-RES ovarian, in the experiment on HS 578T breast and with MDA-N was over 100 µM in each case.
With `c1ccc([CH2][Sn]([CH2]c2ccccc2)([S]c2cccc3cccnc23)[S]c2cccc3cccnc23)cc1`, the GI50 is 0.175 µM in the experiment on DMS 114 small cell lung, 0.109 µM in the experiment with XF 498 CNS and 0.246 µM in the experiment on HOP-18 NSCLC. Besides, the TGI in the experiment with DMS 114 small cell lung was found to be 0.378 µM; in the experiment on XF 498 CNS, 0.367 µM; in the experiment with HOP-18 NSCLC, 0.84 µM.
As for `CC(=O)OCC1OC(n2cc(F)c(=O)[nH]c2=O)C(OC(C)=O)C1OC(C)=O` (stereo unspecified), the TGI in the experiment with DMS 114 small cell lung, with T-47D breast, with XF 498 CNS, in the experiment with BT-549 breast, in the experiment on NCI/ADR-RES ovarian and in the experiment with HOP-18 NSCLC was over 100 µM each time. Also, the TGI in the experiment on HS 578T breast was over 100 µM; in the experiment on MDA-N, over 56.2 µM.
Consider `O=c1[nH]nc(-c2ccccc2)c(-c2ccccc2)c1-n1nc(-c2ccccc2)c2ccccc2c1=O`, for which the TGI in the experiment with DMS 273 small cell lung and in the experiment on HOP-18 NSCLC was over 100 µM throughout.
`COC1CC(OC2OC(CO)C(O)C(O)C2O)/C(=C\C#N)C(O)C1OC` (stereo unspecified): the TGI in the experiment on T-47D breast, in the experiment with BT-549 breast, in the experiment on NCI/ADR-RES ovarian, in the experiment with HS 578T breast and in the experiment on MDA-N was over 100 µM in each case.
As to `O=C(CC1Sc2ccccc2NC1=O)Nc1cccc(Cl)c1` (stereo unspecified), the TGI in the experiment with DMS 114 small cell lung was over 100 µM; with DMS 273 small cell lung it was over 100 µM; in the experiment with XF 498 CNS, 86.5 µM.
With `CC1CN(CCO)CC(C)O1` (stereo unspecified), the TGI in the experiment with T-47D breast, in the experiment with BT-549 breast, in the experiment on NCI/ADR-RES ovarian, in the experiment on HS 578T breast and with MDA-N was over 100 µM throughout.
In the case of `C[N+](C)(C)CC(=O)N/N=C(/C=C/c1ccccc1)CC1OC(=O)c2ccccc21` (stereo unspecified), the TGI in the experiment with DMS 114 small cell lung, in the experiment on DMS 273 small cell lung, with XF 498 CNS and in the experiment on HOP-18 NSCLC was over 100 µM throughout.
Consider `CC(C)NC(=O)OCc1nnn2c1C(OC(=O)NC(C)C)CC2` (stereo unspecified), for which the TGI in the experiment with DMS 114 small cell lung, in the experiment on DMS 273 small cell lung, in the experiment on XF 498 CNS and in the experiment on HOP-18 NSCLC was over 100 µM in each case.
On to `N#Cc1c([N+](=O)[O-])cc(C(F)(F)F)cc1[N+](=O)[O-]`, for which the TGI worked out at 3.93 µM in the experiment on DMS 114 small cell lung, 16.8 µM in the experiment with DMS 273 small cell lung, 3.54 µM in the experiment with XF 498 CNS and 23.9 µM in the experiment on HOP-18 NSCLC.
In the case of `O=C(Nc1nc2ncn(CCOC(=O)c3ccccc3)c2c(=O)[nH]1)c1ccccc1`, the TGI with T-47D breast is over 100 µM; in the experiment on XF 498 CNS, 55.7 µM; in the experiment on NCI/ADR-RES ovarian it was over 100 µM; with HOP-18 NSCLC, over 100 µM; with HS 578T breast, 51.7 µM; in the experiment on MDA-N, 7.89 µM.
As to `CCC12C=CCN3CC[C@]4(C(=C(C(=O)OC)[C@@H]1Nc1ncnc5c1ncn5C1OC(COC(C)=O)C(OC(C)=O)C1OC(C)=O)Nc1ccccc14)C32` (stereo partly specified), the TGI with DMS 114 small cell lung was 4.27 µM; in the experiment with DMS 273 small cell lung, 7.17 µM; in the experiment on XF 498 CNS, 7.44 µM; in the experiment on HOP-18 NSCLC, 19.5 µM.
For the molecule `COC(=O)C1Cc2c([nH]c3ccccc23)[C@H](CC(C)C)N1` (stereo partly specified), the TGI in the experiment with DMS 114 small cell lung, in the experiment with DMS 273 small cell lung, in the experiment with XF 498 CNS and with HOP-18 NSCLC was over 100 µM each time.
In the case of `CC(C)c1ccc2c(c1)CCC1C(C)(C)[C@@H](O)CC[C@]21C` (stereo partly specified), the TGI in the experiment with DMS 114 small cell lung and in the experiment with DMS 273 small cell lung was over 100 µM throughout.
In the case of `C=C1C(=O)OC2C1C(OC(=O)/C(=C/C)COC(C)=O)CC1(CO1)C1C(OC(=O)/C(=C/C)CO)C=C(C)C21` (stereo unspecified), the TGI in the experiment with DMS 114 small cell lung stood at 4.46 µM; with DMS 273 small cell lung, 3.68 µM; with XF 498 CNS it was 3.78 µM; in the experiment on HOP-18 NSCLC it was 2.74 µM.
Take `O=C1CCCC1C(=O)Nc1ccc2ccccc2c1` (stereo unspecified): the TGI in the experiment on T-47D breast, in the experiment with BT-549 breast, in the experiment on NCI/ADR-RES ovarian and in the experiment on MDA-N was over 100 µM each time.
`COC(=O)C1=C(O)C(O)=C(C(=O)OC)CC1`: the TGI in the experiment with DMS 114 small cell lung, in the experiment on DMS 273 small cell lung, with XF 498 CNS and with HOP-18 NSCLC was over 100 µM in each case.
In the case of `CC(=O)NNc1nc(C)c(C(/C=C/c2ccc(/C=C/C(=N\NC(=O)c3ccncc3)c3sc(NNC(C)=O)nc3C)cc2)=N/NC(=O)c2ccncc2)s1`, the TGI in the experiment with DMS 114 small cell lung was over 100 µM.
`CC(=O)Oc1c(-c2ccccc2)[nH]c2cc([N+](=O)[O-])c(/C(Cl)=C/c3ccccc3)cc12`: the figures for the TGI in the experiment on DMS 114 small cell lung and in the experiment with XF 498 CNS were 7.72 µM and 19.3 µM, respectively.
Take `C=C1C(=O)O[C@@H]2[C@@H]3O[C@@](C)(CC/C=C(\C)CCC[C@@H]2C)[C@H](O)C[C@@H]13`: the GI50 in the experiment with T-47D breast was 2.02 µM; with BT-549 breast, 1.84 µM; with NCI/ADR-RES ovarian, 1.67 µM; in the experiment on HS 578T breast, 11.4 µM. Further, the TGI in the experiment on T-47D breast is 4.7 µM; in the experiment with BT-549 breast it was 4.46 µM; in the experiment with NCI/ADR-RES ovarian, 4.53 µM; with HS 578T breast, over 100 µM.
